The values that follow come from patent US20240336907A1, “NOVEL ENDO-ß-N-ACETYLGLUCOSAMINIDASE” (priority 2020, published 2024).

The test system of this assay is (Fucα1,6)GlcNAc-mAb2. Put plainly: One-pot method with various sugar chain donors, Endo-Rp N172H and Endo-Si D241M/Q311L. The format is biochemical. Conditions: donor 50 eq., Endo-Rp N172H 8 μg, Endo-Si D241M/Q311L 10 μg, 28° C., pH 7.5. As for the experimental part: Transglycosylation activity was evaluated as follows. […] When SGP was used as a donor, the transglycosylation rate was calculated in accordance with the formula for computation described in Example 5.

In the case of sialyl glycopeptide [SGP], the “Transglycosylation rate (%)” value was 3.8% (2 h); 5.0% (4 h); 11.2% (6 h); 53.5% (24 h); 89.7% (48 h).
